From the supplement of paper PMC4862054
Several values for one entry are separate records, joined by “and”; a condition that tells them apart may be missing. Equal entries are not always repeated.

These molecules were tested on MDA-MB-453 (assay: drug sensitivity score (DSS), CellTiter-Blue viability (DSS (AUC-based score)); higher = stronger viability inhibition; extreme values may be limits of the assay). Details: incubation time: 72 h.
Experimental: (§1)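 DSRT with the CellTiter-Blue (resazurin reduction) viability readout, fluorescence 560/590 nm, 72 h incubation. Plates were normalised to DMSO and benzethonium chloride controls. DSS is computed from the area under the fitted dose-response curve (5 or 9 concentrations).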
Molecule `C=CC(=O)N1CCC[C@@H](n2nc(-c3ccc(Oc4ccccc4)cc3)c3c(N)ncnc32)C1` has a drug sensitivity score of 14.8.
`Cc1cnc(NC(=O)Nc2cc(Br)c(C)cc2OC[C@@H]2CNCCO2)cn1` gave a drug sensitivity score of 0.
`CC(=O)Nc1cccc(-n2c(=O)n(C3CC3)c(=O)c3c(Nc4ccc(I)cc4F)n(C)c(=O)c(C)c32)c1` showed a drug sensitivity score of 6.65.
In the case of `CC[C@H](Nc1ncnc2[nH]cnc12)c1nc2cccc(F)c2c(=O)n1-c1ccccc1` [CAL-101], the drug sensitivity score is reported as 2.74.

What follows are molecules tested on SK-BR-3 in the same assay as above. Details: incubation time: 72 h.
Experimental: as §1
`Nc1nc(F)nc2c1ncn2[C@@H]1O[C@H](CO)[C@@H](O)[C@@H]1O` [Fludarabine] gave a drug sensitivity score of 1.12.
With `Nc1ncn([C@H]2C[C@H](O)[C@@H](CO)O2)c(=O)n1` [Decitabine] the drug sensitivity score was 2.77 and 1.44.
Work on `O=C(/C=C/c1cccnc1)NCCCCC1CCN(C(=O)c2ccccc2)CC1` [FK-866] yielded a drug sensitivity score of 0.
In the case of `CC[C@@H]1C(=O)N(C)c2cnc(Nc3ccc(C(=O)NC4CCN(C)CC4)cc3OC)nc2N1C1CCCC1` [BI 2536], the drug sensitivity score is reported as 25.6.
`O=C(O)C1(C(=O)O)CCC1.[NH2-].[NH2-].[Pt+2]` [Carboplatin] showed a drug sensitivity score of 0.
For `C1CN1c1nc(N2CC2)nc(N2CC2)n1` [Triethylenemelamine], the drug sensitivity score was 0.
`NCCCNCCSP(=O)(O)O` [Amifostine] showed a drug sensitivity score of 0.
Work on `C=CC(=O)N1CCC[C@@H](n2nc(-c3ccc(Oc4ccccc4)cc3)c3c(N)ncnc32)C1` yielded a drug sensitivity score of 18.7.
`Cc1cnc(NC(=O)Nc2cc(Br)c(C)cc2OC[C@@H]2CNCCO2)cn1` was tested, and the drug sensitivity score was 1.9.
Molecule `CC(=O)Nc1cccc(-n2c(=O)n(C3CC3)c(=O)c3c(Nc4ccc(I)cc4F)n(C)c(=O)c(C)c32)c1` has a drug sensitivity score of 0.
With `CC[C@H](Nc1ncnc2[nH]cnc12)c1nc2cccc(F)c2c(=O)n1-c1ccccc1` [CAL-101] the drug sensitivity score was 2.96.

What follows are molecules tested on BT-474 (assay: drug sensitivity score (DSS), CellTiter-Glo (DSS (AUC-based score)); higher = stronger drug effect (viability inhibition or cytotoxicity); extreme values may be limits of the assay). Details: incubation time: 72 h.
Summary of the method: (§2)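 Breast cancer cell lines (20 µl suspension) were seeded into 384-well plates holding compound at 5 concentrations in 10-fold steps over a compound-specific 10,000-fold range, then incubated 72 h. CellTox Green fluorescence (485/520 nm) was read first, then CellTiter-Glo luminescence after 10 min at room temperature. Each plate was normalised to 0.1 % DMSO and a positive kill control. The drug sensitivity score was calculated from the area under the fitted dose-response curve.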
`CC(=O)Nc1cccc(-n2c(=O)n(C3CC3)c(=O)c3c(Nc4ccc(I)cc4F)n(C)c(=O)c(C)c32)c1` [Trametinib] gave a drug sensitivity score of 5.25.
`C=CCc1cccc(/C=N/NC(=O)CN2CCN(Cc3ccccc3)CC2)c1O` [PAC-1] showed a drug sensitivity score of 2.94.
Molecule `Nc1nc(F)nc2c1ncn2[C@@H]1O[C@H](CO)[C@@H](O)[C@@H]1O` [Fludarabine] has a drug sensitivity score of 0.
`Nc1ncn([C@H]2C[C@H](O)[C@@H](CO)O2)c(=O)n1` [Decitabine] showed a drug sensitivity score of 0.527.
`CC[C@@H]1C(=O)N(C)c2cnc(Nc3ccc(C(=O)NC4CCN(C)CC4)cc3OC)nc2N1C1CCCC1` [BI 2536] showed a drug sensitivity score of 8.94.
In the case of `CC[C@H](C)C(=O)O[C@H]1C[C@H](O)C=C2C=C[C@H](C)[C@H](CC[C@@H](O)C[C@@H](O)CC(=O)O)[C@H]21` [Pravastatin], the drug sensitivity score is reported as 3.69.
In the case of `C=CC(=O)N1CCC[C@@H](n2nc(-c3ccc(Oc4ccccc4)cc3)c3c(N)ncnc32)C1` [Ibrutinib], the drug sensitivity score is reported as 0.
In the case of `CNC(=O)c1cc(Oc2ccc(NC(=O)Nc3cc(C(C)(C)C)nn3-c3ccc4ncccc4c3)c(F)c2)ccn1` [Rebastinib], the drug sensitivity score is reported as 0.877.
Work on `O=C(O)C1(C(=O)O)CCC1.[NH2-].[NH2-].[Pt+2]` [Carboplatin] yielded a drug sensitivity score of 0.
`O=C(O)CCCCC(CCSCc1ccccc1)SCc1ccccc1` (configuration not stated) [CPI-613] showed a drug sensitivity score of 0.
`COc1cc2c(NC3CCN(C(C)C)CC3)nc(C3CCCCC3)nc2cc1OCCCN1CCCC1` [UNC0638] was tested, and the drug sensitivity score was 6.49.
In the case of `O=C(/C=C/c1cccnc1)NCCCCC1CCN(C(=O)c2ccccc2)CC1` [Daporinad], the drug sensitivity score is reported as 13.4.
Work on `Cc1cnc(NC(=O)Nc2cc(Br)c(C)cc2OC[C@@H]2CNCCO2)cn1` [Rabusertib] yielded a drug sensitivity score of 0.
With `CC[C@H](Nc1ncnc2[nH]cnc12)c1nc2cccc(F)c2c(=O)n1-c1ccccc1` [GS-1101] the drug sensitivity score was 2.65.

Each molecule was assayed on BT-549 in the same assay as above. Details: incubation time: 72 h.
Summary of the method: as §2
For `CC(=O)Nc1cccc(-n2c(=O)n(C3CC3)c(=O)c3c(Nc4ccc(I)cc4F)n(C)c(=O)c(C)c32)c1` [Trametinib], the drug sensitivity score was 0.
`C=CCc1cccc(/C=N/NC(=O)CN2CCN(Cc3ccccc3)CC2)c1O` [PAC-1] was tested, and the drug sensitivity score was 7.1.
Molecule `Nc1nc(F)nc2c1ncn2[C@@H]1O[C@H](CO)[C@@H](O)[C@@H]1O` [Fludarabine] has a drug sensitivity score of 0.896.
For `Nc1ncn([C@H]2C[C@H](O)[C@@H](CO)O2)c(=O)n1` [Decitabine], the drug sensitivity score was 3.92.
For `CC[C@@H]1C(=O)N(C)c2cnc(Nc3ccc(C(=O)NC4CCN(C)CC4)cc3OC)nc2N1C1CCCC1` [BI 2536], the drug sensitivity score was 21.3.
In the case of `CC[C@H](C)C(=O)O[C@H]1C[C@H](O)C=C2C=C[C@H](C)[C@H](CC[C@@H](O)C[C@@H](O)CC(=O)O)[C@H]21` [Pravastatin], the drug sensitivity score is reported as 2.77.
Molecule `C=CC(=O)N1CCC[C@@H](n2nc(-c3ccc(Oc4ccccc4)cc3)c3c(N)ncnc32)C1` [Ibrutinib] has a drug sensitivity score of 0.
`CNC(=O)c1cc(Oc2ccc(NC(=O)Nc3cc(C(C)(C)C)nn3-c3ccc4ncccc4c3)c(F)c2)ccn1` [Rebastinib] was tested, and the drug sensitivity score was 0.
`O=C(O)C1(C(=O)O)CCC1.[NH2-].[NH2-].[Pt+2]` [Carboplatin] showed a drug sensitivity score of 0.
In the case of `O=C(O)CCCCC(CCSCc1ccccc1)SCc1ccccc1` (configuration not stated) [CPI-613], the drug sensitivity score is reported as 0.
In the case of `COc1cc2c(NC3CCN(C(C)C)CC3)nc(C3CCCCC3)nc2cc1OCCCN1CCCC1` [UNC0638], the drug sensitivity score is reported as 6.76.
Molecule `O=C(/C=C/c1cccnc1)NCCCCC1CCN(C(=O)c2ccccc2)CC1` [Daporinad] has a drug sensitivity score of 0.
Molecule `Cc1cnc(NC(=O)Nc2cc(Br)c(C)cc2OC[C@@H]2CNCCO2)cn1` [Rabusertib] has a drug sensitivity score of 0.
`CC[C@H](Nc1ncnc2[nH]cnc12)c1nc2cccc(F)c2c(=O)n1-c1ccccc1` [GS-1101] gave a drug sensitivity score of 2.49.

These molecules were tested on CAL-51 in the same assay as above. Details: incubation time: 72 h.
Summary of the method: as §2
`CC(=O)Nc1cccc(-n2c(=O)n(C3CC3)c(=O)c3c(Nc4ccc(I)cc4F)n(C)c(=O)c(C)c32)c1` [Trametinib] showed a drug sensitivity score of 0.
`C=CCc1cccc(/C=N/NC(=O)CN2CCN(Cc3ccccc3)CC2)c1O` [PAC-1] gave a drug sensitivity score of 8.79.
`Nc1nc(F)nc2c1ncn2[C@@H]1O[C@H](CO)[C@@H](O)[C@@H]1O` [Fludarabine] was tested, and the drug sensitivity score was 0.
`Nc1ncn([C@H]2C[C@H](O)[C@@H](CO)O2)c(=O)n1` [Decitabine] showed a drug sensitivity score of 3.54.
Molecule `CC[C@@H]1C(=O)N(C)c2cnc(Nc3ccc(C(=O)NC4CCN(C)CC4)cc3OC)nc2N1C1CCCC1` [BI 2536] has a drug sensitivity score of 17.7.
Molecule `CC[C@H](C)C(=O)O[C@H]1C[C@H](O)C=C2C=C[C@H](C)[C@H](CC[C@@H](O)C[C@@H](O)CC(=O)O)[C@H]21` [Pravastatin] has a drug sensitivity score of 14.4.
Molecule `C=CC(=O)N1CCC[C@@H](n2nc(-c3ccc(Oc4ccccc4)cc3)c3c(N)ncnc32)C1` [Ibrutinib] has a drug sensitivity score of 2.76.
With `CNC(=O)c1cc(Oc2ccc(NC(=O)Nc3cc(C(C)(C)C)nn3-c3ccc4ncccc4c3)c(F)c2)ccn1` [Rebastinib] the drug sensitivity score was 0.
With `O=C(O)C1(C(=O)O)CCC1.[NH2-].[NH2-].[Pt+2]` [Carboplatin] the drug sensitivity score was 0.
In the case of `O=C(O)CCCCC(CCSCc1ccccc1)SCc1ccccc1` (configuration not stated) [CPI-613], the drug sensitivity score is reported as 0.
`COc1cc2c(NC3CCN(C(C)C)CC3)nc(C3CCCCC3)nc2cc1OCCCN1CCCC1` [UNC0638] was tested, and the drug sensitivity score was 7.71.
Work on `O=C(/C=C/c1cccnc1)NCCCCC1CCN(C(=O)c2ccccc2)CC1` [Daporinad] yielded a drug sensitivity score of 0.
With `Cc1cnc(NC(=O)Nc2cc(Br)c(C)cc2OC[C@@H]2CNCCO2)cn1` [Rabusertib] the drug sensitivity score was 0.
With `CC[C@H](Nc1ncnc2[nH]cnc12)c1nc2cccc(F)c2c(=O)n1-c1ccccc1` [GS-1101] the drug sensitivity score was 0.

The molecules below were run on HCC1937 in the same assay as above. Details: incubation time: 72 h.
Summary of the method: as §2
`CC(=O)Nc1cccc(-n2c(=O)n(C3CC3)c(=O)c3c(Nc4ccc(I)cc4F)n(C)c(=O)c(C)c32)c1` [Trametinib] gave a drug sensitivity score of 3.49.
Work on `C=CCc1cccc(/C=N/NC(=O)CN2CCN(Cc3ccccc3)CC2)c1O` [PAC-1] yielded a drug sensitivity score of 3.44.
`Nc1nc(F)nc2c1ncn2[C@@H]1O[C@H](CO)[C@@H](O)[C@@H]1O` [Fludarabine] showed a drug sensitivity score of 0.
In the case of `Nc1ncn([C@H]2C[C@H](O)[C@@H](CO)O2)c(=O)n1` [Decitabine], the drug sensitivity score is reported as 1.42.
Molecule `CC[C@@H]1C(=O)N(C)c2cnc(Nc3ccc(C(=O)NC4CCN(C)CC4)cc3OC)nc2N1C1CCCC1` [BI 2536] has a drug sensitivity score of 0.
With `CC[C@H](C)C(=O)O[C@H]1C[C@H](O)C=C2C=C[C@H](C)[C@H](CC[C@@H](O)C[C@@H](O)CC(=O)O)[C@H]21` [Pravastatin] the drug sensitivity score was 3.68.
Work on `C=CC(=O)N1CCC[C@@H](n2nc(-c3ccc(Oc4ccccc4)cc3)c3c(N)ncnc32)C1` [Ibrutinib] yielded a drug sensitivity score of 0.
`CNC(=O)c1cc(Oc2ccc(NC(=O)Nc3cc(C(C)(C)C)nn3-c3ccc4ncccc4c3)c(F)c2)ccn1` [Rebastinib] was tested, and the drug sensitivity score was 0.
In the case of `O=C(O)C1(C(=O)O)CCC1.[NH2-].[NH2-].[Pt+2]` [Carboplatin], the drug sensitivity score is reported as 0.
With `O=C(O)CCCCC(CCSCc1ccccc1)SCc1ccccc1` (configuration not stated) [CPI-613] the drug sensitivity score was 0.
`COc1cc2c(NC3CCN(C(C)C)CC3)nc(C3CCCCC3)nc2cc1OCCCN1CCCC1` [UNC0638] was tested, and the drug sensitivity score was 5.15.
Molecule `O=C(/C=C/c1cccnc1)NCCCCC1CCN(C(=O)c2ccccc2)CC1` [Daporinad] has a drug sensitivity score of 21.4.
With `Cc1cnc(NC(=O)Nc2cc(Br)c(C)cc2OC[C@@H]2CNCCO2)cn1` [Rabusertib] the drug sensitivity score was 0.
Work on `CC[C@H](Nc1ncnc2[nH]cnc12)c1nc2cccc(F)c2c(=O)n1-c1ccccc1` [GS-1101] yielded a drug sensitivity score of 0.

The molecules below were run on HDQ-P1 in the same assay as above. Details: incubation time: 72 h.
Summary of the method: as §2
`CC(=O)Nc1cccc(-n2c(=O)n(C3CC3)c(=O)c3c(Nc4ccc(I)cc4F)n(C)c(=O)c(C)c32)c1` [Trametinib] showed a drug sensitivity score of 10.8.
Molecule `C=CCc1cccc(/C=N/NC(=O)CN2CCN(Cc3ccccc3)CC2)c1O` [PAC-1] has a drug sensitivity score of 1.79.
`Nc1nc(F)nc2c1ncn2[C@@H]1O[C@H](CO)[C@@H](O)[C@@H]1O` [Fludarabine] gave a drug sensitivity score of 0.
`Nc1ncn([C@H]2C[C@H](O)[C@@H](CO)O2)c(=O)n1` [Decitabine] showed a drug sensitivity score of 0.141.
In the case of `CC[C@@H]1C(=O)N(C)c2cnc(Nc3ccc(C(=O)NC4CCN(C)CC4)cc3OC)nc2N1C1CCCC1` [BI 2536], the drug sensitivity score is reported as 4.76.
`CC[C@H](C)C(=O)O[C@H]1C[C@H](O)C=C2C=C[C@H](C)[C@H](CC[C@@H](O)C[C@@H](O)CC(=O)O)[C@H]21` [Pravastatin] gave a drug sensitivity score of 1.68.
